Among the data in ChEMBL document CHEMBL1909046, “DrugMatrix in vitro pharmacology data” are IC50 and Ki values, retold here.

The structures appear in SMILES notation.

Assay [1] is described as follows: DRUGMATRIX: GABAA, Flunitrazepam, Central radioligand binding (ligand: [3H] Flunitrazepam). The format is cell membranes, Rattus norvegicus, Wistar, Brain, Membrane. Conditions: Not Active = under 50% inhibition at 10 µM.
A further assay deals with D(3) dopamine receptor (Homo sapiens, UniProt P35462). In words: DRUGMATRIX: Dopamine D3 radioligand binding (ligand: [3H] Spiperone). It counts as cell membranes, CHO, Membrane.
The target of another assay is T1, Estrogen receptor (Homo sapiens, UniProt P03372). Further: in other assays of this panel Not Active means under 50% inhibition at 10 µM.
T1 sequence (P03372 whole entry): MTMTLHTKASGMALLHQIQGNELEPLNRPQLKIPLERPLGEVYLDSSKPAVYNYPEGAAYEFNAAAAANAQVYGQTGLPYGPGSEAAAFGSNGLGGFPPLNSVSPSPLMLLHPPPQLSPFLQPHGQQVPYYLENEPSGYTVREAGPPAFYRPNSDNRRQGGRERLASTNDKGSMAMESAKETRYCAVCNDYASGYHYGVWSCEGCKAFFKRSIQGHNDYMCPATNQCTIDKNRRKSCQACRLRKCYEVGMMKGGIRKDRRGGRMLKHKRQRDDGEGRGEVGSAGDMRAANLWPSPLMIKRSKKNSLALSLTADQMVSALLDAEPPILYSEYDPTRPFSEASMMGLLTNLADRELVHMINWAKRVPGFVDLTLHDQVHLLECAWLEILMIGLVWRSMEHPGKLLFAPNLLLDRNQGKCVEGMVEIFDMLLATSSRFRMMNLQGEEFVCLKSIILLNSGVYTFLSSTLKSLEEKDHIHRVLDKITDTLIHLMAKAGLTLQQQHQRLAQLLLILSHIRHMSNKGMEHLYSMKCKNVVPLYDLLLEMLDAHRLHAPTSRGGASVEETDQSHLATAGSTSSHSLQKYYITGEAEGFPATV
Particulars: sf9.

Assay [2] addresses T2, Receptor-type tyrosine-protein phosphatase C (Homo sapiens, UniProt P08575).
T2 sequence (P08575 whole entry): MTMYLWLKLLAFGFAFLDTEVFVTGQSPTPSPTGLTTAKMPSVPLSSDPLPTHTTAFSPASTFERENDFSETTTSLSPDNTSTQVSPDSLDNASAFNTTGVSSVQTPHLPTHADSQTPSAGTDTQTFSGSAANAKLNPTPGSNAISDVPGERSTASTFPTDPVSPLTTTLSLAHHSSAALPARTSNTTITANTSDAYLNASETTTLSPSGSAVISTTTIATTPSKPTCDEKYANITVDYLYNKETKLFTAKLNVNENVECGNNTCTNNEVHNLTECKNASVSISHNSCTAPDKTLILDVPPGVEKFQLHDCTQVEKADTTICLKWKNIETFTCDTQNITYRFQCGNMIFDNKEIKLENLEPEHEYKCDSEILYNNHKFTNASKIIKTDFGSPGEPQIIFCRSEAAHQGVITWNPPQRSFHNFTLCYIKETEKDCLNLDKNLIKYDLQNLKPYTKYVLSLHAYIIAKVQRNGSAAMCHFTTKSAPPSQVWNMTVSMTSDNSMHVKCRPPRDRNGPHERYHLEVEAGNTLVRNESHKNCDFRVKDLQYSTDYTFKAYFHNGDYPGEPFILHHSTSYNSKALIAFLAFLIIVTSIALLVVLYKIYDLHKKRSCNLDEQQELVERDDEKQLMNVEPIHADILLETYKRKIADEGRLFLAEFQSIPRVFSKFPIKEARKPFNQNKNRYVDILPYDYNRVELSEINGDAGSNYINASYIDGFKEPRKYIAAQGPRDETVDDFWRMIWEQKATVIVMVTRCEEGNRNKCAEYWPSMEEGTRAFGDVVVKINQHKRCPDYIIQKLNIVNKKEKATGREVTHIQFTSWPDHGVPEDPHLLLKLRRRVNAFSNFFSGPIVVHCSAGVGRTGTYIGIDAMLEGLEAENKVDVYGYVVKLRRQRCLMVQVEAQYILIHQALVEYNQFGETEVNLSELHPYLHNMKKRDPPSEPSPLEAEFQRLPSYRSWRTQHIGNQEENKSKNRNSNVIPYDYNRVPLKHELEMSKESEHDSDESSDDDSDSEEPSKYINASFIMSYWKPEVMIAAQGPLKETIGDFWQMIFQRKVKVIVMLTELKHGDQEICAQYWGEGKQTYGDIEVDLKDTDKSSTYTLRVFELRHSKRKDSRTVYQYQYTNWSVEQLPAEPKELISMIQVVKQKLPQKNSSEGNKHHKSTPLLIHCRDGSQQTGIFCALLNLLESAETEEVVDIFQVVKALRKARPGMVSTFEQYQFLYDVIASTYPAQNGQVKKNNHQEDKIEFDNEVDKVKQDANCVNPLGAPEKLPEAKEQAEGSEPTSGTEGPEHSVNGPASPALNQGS
Details: species or system Escherichia coli.

The target of assay [3] is T3, Polyunsaturated fatty acid lipoxygenase ALOX15 (Oryctolagus cuniculus, UniProt P12530).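 Further: inhibition of 15-lipoxygenase enzyme activity measured with linoleic acid as the substrate; in other assays of this panel Not Active means under 50% inhibition at 10 µM.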
T3 sequence (P12530 whole entry): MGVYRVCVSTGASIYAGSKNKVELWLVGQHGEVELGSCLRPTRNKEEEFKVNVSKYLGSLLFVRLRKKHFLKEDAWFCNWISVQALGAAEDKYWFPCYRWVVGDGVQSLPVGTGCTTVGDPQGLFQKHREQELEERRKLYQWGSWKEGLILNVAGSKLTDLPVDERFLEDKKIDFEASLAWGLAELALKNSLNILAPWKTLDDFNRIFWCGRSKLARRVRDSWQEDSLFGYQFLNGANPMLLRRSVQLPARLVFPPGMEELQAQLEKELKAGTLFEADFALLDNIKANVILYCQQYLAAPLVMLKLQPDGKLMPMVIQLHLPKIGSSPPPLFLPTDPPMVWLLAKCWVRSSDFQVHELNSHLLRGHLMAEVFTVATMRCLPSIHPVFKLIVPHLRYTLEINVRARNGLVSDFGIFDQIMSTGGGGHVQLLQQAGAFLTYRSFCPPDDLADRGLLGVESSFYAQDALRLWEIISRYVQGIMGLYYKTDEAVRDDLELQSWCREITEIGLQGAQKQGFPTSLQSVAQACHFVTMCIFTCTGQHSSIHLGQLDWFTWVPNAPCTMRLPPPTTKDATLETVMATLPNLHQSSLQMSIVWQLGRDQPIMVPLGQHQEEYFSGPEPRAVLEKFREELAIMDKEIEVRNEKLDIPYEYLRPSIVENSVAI
Nature of the assay: biochemical. It counts as tissue-based, Reticulocytes. Conditions: reticulocytes.

The target in assay [4] is Mitogen-activated protein kinase 14 (Homo sapiens, UniProt Q16539). Details: species or system Escherichia coli.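 Further: inhibition of p38alpha enzyme activity in a biochemical kinase assay, with myelin basic protein serving as substrate; in other assays of this panel Not Active means under 50% inhibition at 10 µM.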
Mitogen-activated protein kinase 14, sequence (Q16539 whole entry): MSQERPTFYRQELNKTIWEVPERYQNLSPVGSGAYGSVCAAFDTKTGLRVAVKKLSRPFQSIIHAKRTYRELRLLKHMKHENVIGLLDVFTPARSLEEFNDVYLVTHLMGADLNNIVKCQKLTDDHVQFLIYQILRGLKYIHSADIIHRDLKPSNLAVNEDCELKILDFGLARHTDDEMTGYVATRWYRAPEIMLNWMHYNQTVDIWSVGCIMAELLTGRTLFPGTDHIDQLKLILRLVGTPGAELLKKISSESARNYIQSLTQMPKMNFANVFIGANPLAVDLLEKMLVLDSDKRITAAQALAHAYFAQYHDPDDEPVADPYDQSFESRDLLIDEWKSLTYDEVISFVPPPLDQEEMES

D(3) dopamine receptor, sequence (P35462 whole entry): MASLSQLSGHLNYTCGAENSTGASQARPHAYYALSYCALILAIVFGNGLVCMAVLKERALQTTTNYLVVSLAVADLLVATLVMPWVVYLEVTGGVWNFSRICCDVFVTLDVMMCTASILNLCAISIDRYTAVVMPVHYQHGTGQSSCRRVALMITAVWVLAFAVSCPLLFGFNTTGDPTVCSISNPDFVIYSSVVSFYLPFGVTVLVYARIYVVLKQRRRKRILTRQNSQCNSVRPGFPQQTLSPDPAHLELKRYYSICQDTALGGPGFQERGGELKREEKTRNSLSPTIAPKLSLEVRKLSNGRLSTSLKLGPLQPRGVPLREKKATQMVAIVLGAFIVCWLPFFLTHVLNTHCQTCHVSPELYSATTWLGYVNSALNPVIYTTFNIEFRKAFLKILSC

With `O=C1CN(/N=C/c2ccc([N+](=O)[O-])o2)C(=O)N1` [NITROFURANTOIN], the IC50 entry (in assay [1]; at D(3) dopamine receptor (cho); against Estrogen receptor; in assay [2]; in assay [3]; in assay [4]) was “Not Active” in each case. The Ki – broadly, a dissociation constant, usually derived from enzyme kinetics or from competition with a known ligand – in assay [1] is recorded as “Not Active”.
Regarding `Cc1c(N)nc([C@H](CC(N)=O)NC[C@H](N)C(N)=O)nc1C(=O)N[C@H](C(=O)N[C@H](C)[C@@H](O)[C@H](C)C(=O)N[C@H](C(=O)NCCc1nc(-c2nc(C(=O)NCCC[S+](C)C)cs2)cs1)[C@@H](C)O)[C@@H](O[C@@H]1O[C@@H](CO)[C@@H](O)[C@H](O)[C@@H]1O[C@H]1O[C@H](CO)[C@@H](O)[C@H](OC(N)=O)[C@@H]1O)c1c[nH]cn1.[Br-]` [BLEOMYCIN A2], the IC50 entry (in assay [1]; on D(3) dopamine receptor (cho); at Estrogen receptor; in assay [2]; in assay [3]; in assay [4]) was “Not Active” in each case. Further, the Ki result in assay [1] is “Not Active”.
For `CC(C)Cc1ccc([C@H](C)C(=O)O)cc1` [DEXIBUPROFEN], the IC50 entry (in assay [1]; on D(3) dopamine receptor (cho); against Estrogen receptor; in assay [2]; in assay [3]; in assay [4]) was “Not Active” each time. Also, the Ki entry in assay [1] was “Not Active”.
As for `NS(=O)(=O)c1cc(C(=O)O)c(NCc2ccco2)cc1Cl` [FUROSEMIDE], the IC50 entry (in assay [1]; on D(3) dopamine receptor (cho); against Estrogen receptor; in assay [2]; in assay [3]; in assay [4]) was “Not Active” in each case. The Ki entry in assay [1] is “Not Active”.
Turning to `COC(=O)C[C@](O)(CCC(C)(C)O)C(=O)O[C@@H]1C(OC)=C[C@]23CCCN2CCc2cc4c(cc2[C@H]13)OCO4` [HARRINGTONINE], the IC50 entry (in assay [1]; on D(3) dopamine receptor (cho); against Estrogen receptor; in assay [2]; in assay [3]; in assay [4]) was “Not Active” each time. Besides, the inhibition constant Ki result in assay [1] is given as “Not Active”.
Regarding `CCN1CCN(C(=O)N[C@@H](C(=O)N[C@@H]2C(=O)N3[C@@H]2SC(C)(C)[C@@H]3C(=O)O)c2ccccc2)C(=O)C1=O` [PIPERACILLIN], the IC50 entry (in assay [1]; on D(3) dopamine receptor (cho); against Estrogen receptor; in assay [2]; in assay [3]; in assay [4]) was “Not Active” throughout. Moreover, in assay [1], the Ki entry is “Not Active”.
Regarding `NC(N)=Nc1nc(CSCCC(N)=NS(N)(=O)=O)cs1` [FAMOTIDINE], the IC50 result (in assay [1]; on D(3) dopamine receptor (cho); against Estrogen receptor; in assay [2]; in assay [3]; in assay [4]) was “Not Active” in each case. In assay [1], the Ki entry is “Not Active”.
Consider `CN(CCOc1ccc(C[C@H](Nc2ccccc2C(=O)c2ccccc2)C(=O)O)cc1)c1ccccn1`, for which the IC50 entry (in assay [1]; at D(3) dopamine receptor (cho); at Estrogen receptor; in assay [2]; in assay [3]; in assay [4]) was “Not Active” in each case. The Ki entry in assay [1] was “Not Active”.
Regarding `COc1cc(NC(C)CCCN)c2ncccc2c1` (centres undefined) [PRIMAQUINE], the IC50 result (in assay [1]; at D(3) dopamine receptor (cho); at Estrogen receptor; in assay [2]; in assay [3]; in assay [4]) was “Not Active” throughout. For the same compound, in assay [1], the Ki entry is reported as “Not Active”.
Take `c1ccc2sc(SSc3nc4ccccc4s3)nc2c1` [BENZOTHIAZYL DISULFIDE]: the IC50 (as a rule, the concentration that gives 50% inhibition) in assay [1] is “Not Active”; on D(3) dopamine receptor (read-out: IC50), 851 nM; against Estrogen receptor, “Not Active”; in assay [2], “Not Active”; in assay [3], “Not Active”; in assay [4], “Not Active”. Also, the inhibitory constant (Ki) entry in assay [1] is “Not Active”; on D(3) dopamine receptor (read-out: Ki) it was 289 nM.
On to `CC(=O)[C@]1(O)Cc2c(O)c3c(c(O)c2[C@@H](O[C@H]2C[C@H](N)[C@H](O)[C@H](C)O2)C1)C(=O)c1ccccc1C3=O` [IDARUBICIN], for which the IC50 entry (in assay [1]; at D(3) dopamine receptor (cho); against Estrogen receptor; in assay [2]; in assay [3]; in assay [4]) was “Not Active” in each case. Besides, the Ki result in assay [1] is recorded as “Not Active”.
Take `O=C(O)c1ccccc1` [BENZOIC ACID]: the half-inhibitory concentration (IC50) result (in assay [1]; on D(3) dopamine receptor (cho); at Estrogen receptor; in assay [2]; in assay [3]; in assay [4]) was “Not Active” each time. Moreover, the Ki result in assay [1] is given as “Not Active”.
For `O=C(Nc1ccc(Cl)c(Cl)c1)c1cc(Cl)cc(Cl)c1O` [3,3',4',5-TETRACHLOROSALICYLANILIDE], the IC50 result in assay [1] was “Not Active”; on D(3) dopamine receptor (cho), “Not Active”; against Estrogen receptor it was “Not Active”; in assay [2], “Not Active”; in assay [3] it was “Not Active”; in assay [4] (read-out: IC50), 2180 nM. In addition, the inhibitory constant (Ki) result in assay [1] is “Not Active”.
Take `CC(C)NCC(O)COc1ccc(CC(N)=O)cc1` (centres undefined) [ATENOLOL]: the IC50 entry (in assay [1]; at D(3) dopamine receptor (cho); against Estrogen receptor; in assay [2]; in assay [3]; in assay [4]) was “Not Active” throughout. Moreover, the Ki entry in assay [1] is “Not Active”.
